Assay results as given in patent US20100297046A1, “Compositions and Methods Related to Fructosamine-3-Kinase Inhibitors” (DYNAMIS THERAPEUTICS, INC., priority 2006, published 2010).
Several values for one entry are separate records, joined by “and”; a condition that tells them apart may be missing. Identical values can stand only once.

Assays:
3-deoxyglucosone = assay: Reduction of urinary and plasma 3-deoxyglucosone in rats; type: in vivo, rat; settings: for Plasma 3-deoxyglucosone reduced / average reduction of urinary 3-deoxyglucosone: rats, 10 μmols intraperitoneal; for Plasma 3-deoxyglucosone reduced: plasma at end of three hours; for average reduction of urinary 3-deoxyglucosone: urine three hours after vs before, normalized to creatinine
Procedure: Urine was collected from six rats for three hours. A plasma sample was also obtained. The animals were then given 10 μmols of either sorbitollysine, mannitollysine, or galactitollysine by intraperitoneal injection. Urine was collected for another three hours, and a plasma sample obtained at the end of the three hours.
a. 3-deoxyglucosone was measured in the samples, as described in Example 5, below, and variable volumes were normalized to creatinine. The average reduction of urinary 3-deoxyglucosone was 50% by sorbitollysine, 35% by mannitollysine and 35% by galactitollysine. Plasma 3-deoxyglucosone was reduced 40% by sorbitollysine, 58% by mannitollysine and 50% by galactitollysine.
Three rats were treated as in b), immediately above, except meglumine (100 μmols) was injected intraperitoneally instead of the above-mentioned lysine derivatives. Three hours after the injection the average 3-deoxyglucosone concentrations in the urine were decreased 42%.
3DG was measured by GC-MS after deionization of the sample. 3DG was derivatized with a 10-fold excess of diaminonaphthalene in PBS. Ethyl acetate extraction gave a salt free fraction which was converted to the trimethyl silyl ethers with Tri-Sil (Pierce). Analysis was performed on a Hewlett-Packard 5890 selected ion monitoring GC-MS system. GC was performed on a fused silica capillary column (DB-5.25 mx. […]) using the following temperature program: injector port 250° C., initial column temperature 150° C. which is held for 1 minute, then increased to 290° C. at 16° C./minute and held for 15 minutes. Quantitation of 3DG employed selected ion monitoring using an internal standard of U-13C-3DG.

[1] = molecular target: T1, Calf skin collagen Type I (Bos taurus, UniProt P02453+P02465); assay: Collagen crosslinking by 3DG in vitro (CNBr digestion, SDS-PAGE); type: biochemical; settings: 37° C., 24 hours
T1 construct: Calf skin collagen Type I (1.3 mg; Sigma); purchased Sigma; host or cells: calf skin (tissue-derived)
Procedure: Collagen type I was treated with 3DG in the presence or absence of arginine. The samples were subjected to cyanogen bromide (CNBr) digestion, electrophoresed on a 16.5% SDS Tris-tricine gel, and then the gels were processed using silver stain techniques to visualize the proteins. Lane 1 contains molecular weight marker standards. Lanes 2 and 5 contain 10 and 20 μl of the collagen mixture following CNBr digestion. Lanes 3 and 6 contain the collagen mixture treated with 3DG and then digested with CNBr, and loaded at 10 and 20 μl, respectively. Lanes 4 and 7 contain the mixture of collagen incubated with 5 mM 3DG and 10 mM arginine and then digested with CNBr, and loaded at 10 and 20 μl, respectively.
Collagen I was incubated in the presence or absence of 3DG in vitro. Calf skin collagen Type I (1.3 mg; Sigma) was incubated in 20 mM Na-phosphate buffer, pH 7.25, either alone, with 5 mM 3DG, or with 5 mM 3DG plus 10 mM arginine, in a total volume of 1 ml at 37° C. for 24 hours and then frozen and lyophilized. The residue was dissolved in 0.5 ml of 70% formic acid and cyanogen bromide was added (20:1, w/w). This solution was incubated at 30° C. for 18 hours. […] The extent of collagen crosslinking was determined by applying equal volumes of sample and analyzing by SDS-PAGE electrophoresis (16.5% Tris-tricine gel), as determined by the effects of 3DG on the migration of collagen.

3DG = assay: Plasma 3DG levels in diabetic and non-diabetic rats treated with 3-O-methyl sorbitollysine; type: in vivo, rat; settings: for plasma 3DG level: 50 mg/kg body weight injections, within one week
Procedure: A cohort of twelve diabetic rats was divided into two groups of six. The first group received saline-only injections, and the second received injections of 3-O-methyl sorbitollysine (50 mg/kg body weight) in saline solution. The same procedure was conducted on a cohort of twelve non-diabetic rats.

[2] = Locus of 3-O-methyl sorbitollysine uptake in vivo (recovery from tissues, urine, plasma); parameters: species or system rat
Procedure: […] Urine was collected for 3 hours, after which the rats were sacrificed. The tissues to be analyzed were removed and freeze clamped in liquid nitrogen. Perchloric acid extracts of the tissues were used for metabolite analysis. The tissues examined were taken from the brain, heart, muscle, sciatic nerve, spleen, pancreas, liver, and kidney. Plasma was also analyzed.

[3] = test system: skin of STZ-diabetic rats; assay: Skin elasticity measurement (vacuum pull) in STZ-diabetic and normal rats; type: in vivo, rat; settings: 50 mg/kg daily subcutaneous, eight weeks
Procedure: Experiments were performed to determine the effects of DYN 12 on the loss of skin elasticity associated with diabetes. To this end, two groups of STZ-diabetic rats and two groups of normal rats were subjected to treatment with DYN 12 or saline. One group of STZ-diabetic rats (n=9) received daily subcutaneous injections of DYN 12 at 50 mg/kg for eight weeks, as did one group of normal rats (n=6). A group of control diabetic rats (n=10) and a group of normal rats (n=6) received saline instead of DYN 12. One rat was removed from the diabetic DYN 12 group after 2 weeks because its blood glucose readings were inconsistent (too low) with other diabetic rats.
A non-invasive procedure based on CyberDERM, Inc. technology utilizing a skin elasticity measurement device was used to test the effects of DYN 12 treatment on skin elasticity. The procedure provides for non-invasive measurement of skin elasticity based upon the amount of vacuum pull required to displace skin. A suction cup probe is adhered to an area of shaved skin in order to form an airtight seal. Then, a vacuum is applied to the area of the skin inside the suction cup until the skin is displaced past a sensor located inside the probe. Accordingly, the more pressure that is required to displace the skin, the less elastic the skin is.

diabetic rats = assay: Muscle strength / resistance to pull in alert restrained diabetic rats; type: in vivo, rat; settings: diabetic rats treated vs not treated; preliminary data
Description: The present invention also encompasses methods for prevention of hair loss associated with or mediated by loss of microcirculation and/or loss of neuro-innervation in populations of aging, sclerodermic and/or in diabetic individuals. This is because 3DG is a known precursor to the formation of AGEs which are known to be causally connected to the development of neuropathy. […] This supports the concept that maintenance of nerve conduction and microcirculation that supports nerve innervation is deleteriously affected not only by AGEs, but also 3DG. Similarly, where 3DG would cause blockage of the microcirculation that supports nerve innervation of the hair follicle, the hair follicle will atrophy and die, as is the case in neuropathy. Accordingly, the present invention includes methods for preventing hair loss, where such hair loss is associated with or mediated by the presence of 3DG in the skin proximal to a hair follicle/shaft.
Skin elasticity measurements were also taken on the test subjects as described above, but without sedating the test animals before measurement. FIG. 15 illustrates skin elasticity measurements taken on the hind leg of the test subjects while the subjects were alert and being restrained by a technician.
In these experiments, the animals were fiercely fighting restraint and the results are different.

mouse mesangial cells = assay: Type IV collagen production in kidney cells in vitro; type: cell-based
Procedure: Type IV collagen production was measured in mouse mesangial cells. Controls (grown with […]) produced 300 ng of Type IV collagen per 10,000 cells, whereas fructoselysine treated cells (5 or 10 mM fructoselysine with 10 mM glucose) produced 560 and 1100 ng/10,000 cells.

[4] = parameters: species or system human; settings: in vivo
Procedure: Volunteers spent two days on a fructoselysine-free diet and then consumed 22.5 g of the food product prepared as described herein, thus effectively receiving a 2 gram dose of fructoselysine. Urine was collected at 2 hour intervals for 14 hours and a final collection was made at 24 hours. FL was measured by HPLC with a Waters 996 diode Array using a Waters C18 Free Amino Acid column at 46° C. and a gradient elution system of acetonitrile-methyl alcohol-water (45:15:40) into acetonitrile-sodium acetate-water (6:2:92) at 1 ml/min. Quantitation employed an internal standard of meglumine. 3DF was measured by HPLC after deionization of the sample. Analyses were performed on a Dionex DX-500 HPLC system employing a PA1 column (Dionex) and eluting with 32 mM sodium hydroxide at 1 ml/min. Quantitation was performed from standard curves obtained daily with synthetic 3DF. 3DG was measured by GC-MS after deionization of the sample. 3DG was derivatized with a 10-fold excess of diaminonaphthalene in PBS. Ethyl acetate extraction gave a salt free fraction which was converted to the trimethyl silyl ethers with Tri-Sil (Pierce). Analysis was performed on a Hewlett-Packard 5890 selected ion monitoring GC-MS system. […] Quantitation of 3DG employed selected ion monitoring using an internal standard of U-13C-3DG.

T1 sequence (P02453 162-1217 limits assumed): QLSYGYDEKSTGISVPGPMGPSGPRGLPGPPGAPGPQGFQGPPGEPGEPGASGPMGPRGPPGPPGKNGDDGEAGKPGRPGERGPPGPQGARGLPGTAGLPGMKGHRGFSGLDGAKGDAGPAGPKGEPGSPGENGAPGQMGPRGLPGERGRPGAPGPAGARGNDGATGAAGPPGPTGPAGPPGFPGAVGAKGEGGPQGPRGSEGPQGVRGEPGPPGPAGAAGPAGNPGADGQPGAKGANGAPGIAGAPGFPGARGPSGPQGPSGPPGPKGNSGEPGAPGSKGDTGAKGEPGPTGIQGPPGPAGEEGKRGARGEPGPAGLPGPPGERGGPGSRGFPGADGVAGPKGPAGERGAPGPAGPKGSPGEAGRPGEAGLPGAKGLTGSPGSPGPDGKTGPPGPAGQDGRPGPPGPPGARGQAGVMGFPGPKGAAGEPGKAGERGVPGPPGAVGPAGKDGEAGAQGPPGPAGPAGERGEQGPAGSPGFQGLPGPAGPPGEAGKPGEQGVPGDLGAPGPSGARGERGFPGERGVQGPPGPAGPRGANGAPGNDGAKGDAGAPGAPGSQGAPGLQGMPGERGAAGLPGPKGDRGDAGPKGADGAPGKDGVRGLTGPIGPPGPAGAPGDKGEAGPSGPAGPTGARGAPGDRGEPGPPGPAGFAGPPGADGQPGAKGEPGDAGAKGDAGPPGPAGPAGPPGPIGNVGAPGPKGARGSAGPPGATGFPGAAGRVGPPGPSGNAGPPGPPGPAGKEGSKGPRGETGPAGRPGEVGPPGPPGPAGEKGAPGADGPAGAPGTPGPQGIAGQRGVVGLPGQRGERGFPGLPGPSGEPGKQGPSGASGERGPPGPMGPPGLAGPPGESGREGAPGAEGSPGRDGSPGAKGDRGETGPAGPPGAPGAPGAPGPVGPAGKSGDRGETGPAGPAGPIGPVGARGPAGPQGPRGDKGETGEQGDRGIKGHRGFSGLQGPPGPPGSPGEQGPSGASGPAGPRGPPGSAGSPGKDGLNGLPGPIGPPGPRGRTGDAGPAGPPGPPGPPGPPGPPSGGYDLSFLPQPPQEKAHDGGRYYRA
T1 sequence (P02465 80-1117 limits assumed): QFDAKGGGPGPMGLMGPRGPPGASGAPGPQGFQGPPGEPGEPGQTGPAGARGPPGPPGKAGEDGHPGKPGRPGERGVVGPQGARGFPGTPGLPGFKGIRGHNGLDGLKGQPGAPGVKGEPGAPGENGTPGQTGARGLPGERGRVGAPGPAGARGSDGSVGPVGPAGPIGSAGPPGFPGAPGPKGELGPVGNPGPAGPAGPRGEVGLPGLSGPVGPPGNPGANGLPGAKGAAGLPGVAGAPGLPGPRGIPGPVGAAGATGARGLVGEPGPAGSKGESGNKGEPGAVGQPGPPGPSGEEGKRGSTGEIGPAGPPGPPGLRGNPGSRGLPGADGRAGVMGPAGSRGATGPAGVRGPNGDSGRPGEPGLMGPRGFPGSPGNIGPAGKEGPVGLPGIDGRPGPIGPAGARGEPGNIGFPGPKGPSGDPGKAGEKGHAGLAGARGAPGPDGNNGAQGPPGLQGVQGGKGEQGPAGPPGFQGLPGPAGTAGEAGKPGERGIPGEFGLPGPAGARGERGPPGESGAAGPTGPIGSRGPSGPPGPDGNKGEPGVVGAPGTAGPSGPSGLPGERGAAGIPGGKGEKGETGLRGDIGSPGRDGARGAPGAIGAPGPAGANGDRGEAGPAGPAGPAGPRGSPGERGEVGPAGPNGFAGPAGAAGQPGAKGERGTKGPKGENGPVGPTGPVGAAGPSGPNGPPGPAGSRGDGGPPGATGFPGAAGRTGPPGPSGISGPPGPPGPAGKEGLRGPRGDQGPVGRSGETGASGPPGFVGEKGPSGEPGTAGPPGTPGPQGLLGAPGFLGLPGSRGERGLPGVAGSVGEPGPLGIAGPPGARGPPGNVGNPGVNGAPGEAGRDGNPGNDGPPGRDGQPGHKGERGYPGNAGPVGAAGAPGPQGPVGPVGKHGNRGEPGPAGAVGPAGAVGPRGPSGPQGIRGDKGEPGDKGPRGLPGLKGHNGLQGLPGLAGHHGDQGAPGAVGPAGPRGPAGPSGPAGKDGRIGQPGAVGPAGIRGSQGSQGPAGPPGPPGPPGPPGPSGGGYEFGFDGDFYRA

With `CNC[C@H](O)[C@@H](O)[C@H](O)[C@H](O)CO` [meglumine] the “average 3-deoxyglucosone concentrations in the urine decreased” value (3-deoxyglucosone; three rats, 100 μmols intraperitoneal, three hours after the injection) was 42%.
With `N=C(N)NCCC[C@H](N)C(=O)O` [arginine, reference compound] the “inhibition of 3DG induced collagen crosslinking” value ([1]; 5 mM 3DG plus 10 mM arginine) was “fewer high molecular bands”.
For `N[C@@H](CCCCNC[C@H](O)[C@@H](O)[C@@H](O)[C@H](O)CO)C(=O)O` [galactitollysine], the “Plasma 3-deoxyglucosone reduced” value (3-deoxyglucosone) was 50% and the “average reduction of urinary 3-deoxyglucosone” value (from here on “average reduction”) (3-deoxyglucosone) was 35%.
For `N[C@@H](CCCCNC[C@H](O)[C@@H](O)[C@H](O)[C@H](O)CO)C(=O)O` [sorbitollysine], the “Plasma 3-deoxyglucosone reduced” value (3-deoxyglucosone) was 40% and the “average reduction” value (3-deoxyglucosone) was 50%.
In the case of `O=CC(=O)C[C@H](O)[C@H](O)CO` [3DG, 3-deoxyglucosone], the “collagen crosslinking (migration on SDS-PAGE)” value ([1]; 5 mM 3DG) is reported as “caused the collagen to migrate as if it had a higher molecular weight”.
For `CO[C@@H]([C@H](O)[C@H](O)CO)[C@@H](O)CNCCCC[C@H](N)C(=O)O` [DYN 12, 3-O-methylsorbitollysine], the “% Reduction of plasma 3DG vs saline only” value (3DG; Diabetic rats) was 53%, the “plasma 3DG level” value (3DG; Diabetic rats) was 0.44 ± 0.10 µM and the “% Reduction of plasma 3DG vs saline only” value (3DG; Non-diabetic rats) was 43%. For the same molecule, the “plasma 3DG level” value (3DG; Non-diabetic rats) was 0.13 ± 0.02 µM, the “nmols 3OMeSL in kidneys” value ([2]; 13500 nmols injected intraperitoneally, sacrificed after 3 hours, one line per rat, listed as 3OMeSL) was 8155 nmols and 3880 nmols and 10071 nmols and 6582 nmols and 5373 nmols and 4833 nmols and the “Nmols 3OMeSL in urine” value ([2]; 13500 nmols injected intraperitoneally, urine collected 3 hours, one line per rat (Rat # 2084-2089), listed as 3OMeSL) was 4200 nmols and 1355 nmols and 2940 nmols and 1675 nmols and 1778 nmols and 2360 nmols. For the same molecule, the “presence in urine and plasma” value ([2]; 3 hours after ip injection) was “The urine also contained 3-O-methyl sorbitollysine, but plasma did not”, the “tissue extracts found to contain the compound” value ([2]; brain, heart, muscle, sciatic nerve, spleen, pancreas, liver, kidney examined 3 hours after ip injection) was “The only tissue extract found to contain 3-O-methyl sorbitollysine was that of the kidney” and the “% 3OMeSL recovered (percentage of the injected dose recovered from urine and kidney)” value ([2]; urine plus kidneys, one line per rat, listed as 3OMeSL) was 91.5% and 38.8% and 96.4% and 61.2% and 53.0% and 53.3%. The “total 3OMeSL recovered” value ([2]; urine plus kidneys, one line per rat, listed as 3OMeSL, in nmol) was 12355 and 5235 and 13011 and 8257 and 7151 and 7193, the “amount of pressure needed to displace the skin” value [3] was 3.2+/−1.2 kPA and the “muscle strength measured while alert” value (diabetic rats) was “stronger muscle strength”.
With `N[C@@H](CCCCNC[C@@H](O)[C@@H](O)[C@H](O)[C@H](O)CO)C(=O)O` [mannitollysine] the “Plasma 3-deoxyglucosone reduced” value (3-deoxyglucosone) was 58% and the “average reduction” value (3-deoxyglucosone) was 35%.
For `NC(CCCCNCC(=O)C(O)C(O)C(O)CO)C(=O)O` (stereo not drawn) [fructoselysine, 1-deoxy-1-(ε-aminolysine)-fructose], the “Type IV collagen production” value (mouse mesangial cells; 5 mM fructoselysine with 10 mM glucose) was 560 ng/10,000 cells, the “Type IV collagen production” value (mouse mesangial cells; 10 mM fructoselysine with 10 mM glucose) was 1100 ng/10,000 cells and the “time of peak 3DF excretion in urine after the bolus” value [4] was “about 4 hours”.
